This is an account of results in US20140336182A1, “Aurora Kinase Modulators and Method of Use” (Amgen Inc., priority 2013, published 2014).

Each structure is given as a SMILES string.

The first experiment relates to HeLa cells. Put plainly: HeLa cell 24 hr ploidy assay (DNA content). The experiment is classed as cell-based. Conditions: Homo sapiens, HeLa, 4N ploidy, average, read-out: 24h_4NPloidy EC50_IP (uM Avg). Summed up: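 HeLa cells (1×10^4/well, MEM+10% FBS) cultured 24 h, treated with serially diluted compounds (0.25% DMSO final), then fixed, permeabilized and stained with Hoechst 33342 (0.5 ug/ml). Imaging quantified % 4N and >4N cells; EC50 IP and EC50 transit derived from dose curves.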
In the case of `COc1cc2nccc(Oc3ccc(Nc4nnc(-c5cccc(C)n5)c5ccccc45)cc3)c2cn1` [compound 110], the EC50 was 0.124 µM.

`COc1cc2nccc(Oc3ccc(Nc4nnc(N5CCCCC5)c5ccccc45)cc3)c2cc1OC` [compound 75]: the EC50 is 0.025 µM.

Turning to `COc1ccc(-c2nnc(Nc3ccc(Oc4ccnc5cc(C#N)ccc45)cc3)c3ccccc23)cc1` [compound 141, 4-((4-((4-(4-(methyloxy)phenyl)-1-phthalazinyl)amino)phenyl)oxy)-7-quinolinecarbonitrile], the EC50 was determined as 0.025 µM.

On to `COc1cccc(-c2nnc(Nc3ccc(Oc4ccnc5cc(OC)c(OC)cc45)cc3)c3ccccc23)n1` [compound 101], for which the EC50 worked out at 0.009 µM.

For the compound `COc1cnc2c(Oc3ccc(Nc4nnc(-c5cccc(C)n5)c5ccccc45)cn3)ccnc2c1` [compound 128, N-(6-((7-(methyloxy)-1,5-naphthyridin-4-yl)oxy)-3-pyridinyl)-4-(6-methyl-2-pyridinyl)-1-phthalazinamine], the EC50 is > 1.2 µM.

Take `COc1cnc2c(Oc3ccc(Cc4nnc(-c5ccc(C)cc5)c5ccccc45)cc3)ccnc2c1` [compound 126, 3-(methyloxy)-8-((4-((4-(4-methylphenyl)-1-phthalazinyl)methyl)phenyl)oxy)-1,5-naphthyridine]: the EC50 was > 1.2 µM.

Regarding `COc1cc2nccc(Oc3ccc(Nc4nnc(-c5ccc(C)c(C)c5)c5ccccc45)cc3)c2cc1OC` [compound 74], the EC50 worked out at 0.018 µM.

As to `COc1ccc(-c2nnc(Nc3ccc(Oc4ccnc5cc(OC)cnc45)cc3)c3ccccc23)cc1` [Example 37, N-(4-(7-methoxy-1,5-naphthyridin-4-yloxy)phenyl)-4-(4-methoxyphenyl)phthalazin-1-amine], the EC50 stood at 0.052 µM.

For `COc1cc2nccc(Oc3ccc(Nc4nnc(-c5ccccc5)c5ccccc45)cc3)c2cn1` [compound 96, N-(4-((7-(methyloxy)-1,6-naphthyridin-4-yl)oxy)phenyl)-4-phenyl-1-phthalazinamine], the EC50 was found to be 0.063 µM.

The experiment is the same for the next values; noted with them: Homo sapiens, HeLa, HeLa cells, 4N ploidy, average, read-out: 24h_4NPloidy EC50_IP (uM Avg).
For `COc1cnc2c(Sc3ccc(Nc4nnc(-c5ccc6cn[nH]c6c5)c5ccccc45)cc3)ccnc2c1` [compound 453], the EC50 was < 0.0023 µM.

With `c1ccc(-c2nnc(Nc3ccc(Cn4cnc5ccccc54)cc3)c3ccccc23)cc1` [compound 340], the EC50 was ≥ 1.2 µM.

Regarding `COc1ccc2c(Sc3ccc(Nc4nnc(-c5ccc(Cl)cn5)c5ccccc45)cc3)ccnc2c1` [compound 364], the EC50 was 0.005 µM.

As to `Cc1csc(-c2nnc(Nc3ccc(Oc4ccnc5ccc(OC(F)(F)F)cc45)cc3)c3ccccc23)c1` [compound 575], the EC50 came to 0.112 µM.

For the compound `COc1ccc2ncnc(Oc3ccc(Nc4nnc(-c5ccc(Cl)cc5)c5ccccc45)cc3)c2c1` [compound 564], the EC50 came out at 0.043 µM.

Consider `CN(c1ccc(Oc2ccnc3ccc(=O)[nH]c23)cc1)c1nnc(-c2ccc(Cl)cc2)c2ccccc12` [compound 500], for which the EC50 was > 1.2 µM.

In the case of `Cc1ccc(-c2nnc(Nc3ccc(Sc4ccnc5cc(C6CC6)oc45)cc3)c3ccccc23)cc1N` [compound 487], the EC50 was 0.006 µM.

Take `COc1ccc2c(Oc3ccc(Nc4nnc(-c5ccc(C(F)(F)F)cc5)c5ccccc45)cc3)c(F)cnc2c1` [Example 39, N-(4-(3-fluoro-7-methoxyvquinolin-4-yloxy)phenyl)-4-(4-(trifluoromethyl)phenyl) phthalazin-1-amine]: the EC50 was ≥ 1.2 µM.

In the case of `Cc1csc(-c2nnc(Nc3ccc(Sc4ccnc5ccoc45)cc3)c3ccccc23)c1` [compound 468], the EC50 was determined as 0.014 µM.

Turning to `COc1cnc2c(Oc3ccc(Nc4nnc(-c5ccc(F)c(OC)c5)c5ccccc45)cc3)ccnc2c1` [compound 180], the EC50 stood at 0.025 µM.

With `CCOc1nc(-c2nnc(Nc3ccc(Oc4ccnc5cc(OC)cnc45)cc3)c3ccccc23)cs1` [compound 175], the EC50 came to 0.059 µM.

Regarding `c1ccc(-c2nnc(Nc3ccc(Oc4ncnc5nc[nH]c45)cc3)c3ccccc23)cc1` [compound 257], the EC50 is > 1.2 µM.

As to `COc1ccc2nccc(Sc3ccc(Nc4nnc(-c5cc(C)cs5)c5ccccc45)cc3)c2n1` [compound 549], the EC50 is 0.009 µM.

For the compound `Cc1ccc(-c2nnc(Nc3ccc(Oc4ccnc5cccnc45)cc3)c3ccccc23)cc1N` [compound 416], the EC50 is 0.008 µM.

With `COc1ccc2nccc(Oc3ccc(Nc4nnc(-c5ccc(Cl)cn5)c5ccccc45)cc3)c2c1` [compound 278], the EC50 amounted to 0.011 µM.

In the case of `CCc1cc(-c2ccc(C)cc2)nnc1Nc1ccc(Nc2ccnc3cc(OC)cnc23)cc1` [compound 595], the EC50 worked out at 0.083 µM.

Turning to `COc1cnc2c(Sc3ccc(Nc4nnc(-c5cc(C)cs5)c5ccccc45)cc3F)ccnc2c1` [compound 528], the EC50 was 0.009 µM.

In the case of `COc1cnc2c(Oc3ccc(Nc4nnc(-c5cc(C)cc(C)c5)c5ccccc45)cc3)ccnc2c1` [compound 188], the EC50 is 0.051 µM.

Take `COc1cc2nccc(Oc3ccc(Nc4nnc(-c5ccccc5)c5ccccc45)cc3)c2cc1C#N` [Example 392, 7-Methoxy-4-(4-(4-phenylphthalazin-1-ylamino)phenoxy)quinoline-6-carbonitrile]: the EC50 was determined as 0.085 µM.

On to `COc1cnc2c(Sc3ccc(Nc4nnc(N5CCN6CC(F)(F)C[C@H]6C5)c5ccccc45)cc3)ccnc2c1` [compound 601], for which the EC50 worked out at 0.005 µM.

In the case of `Cc1csc(-c2nnc(Nc3ccc(Sc4ccnc5cc(OC(F)(F)F)ccc45)cc3)c3ccccc23)c1` [compound 499], the EC50 was determined as 0.052 µM.

Consider `COc1cnc2c(Sc3ccc(Nc4nnc(-c5ccc6cn(C)nc6c5)c5ccccc45)cc3)ccnc2c1` [compound 502], for which the EC50 was determined as 0.006 µM.

As for `Clc1ccc(-c2nnc(Nc3ccc(Oc4ccnc5[nH]ccc45)cc3)c3ccccc23)cc1` [compound 241], the EC50 is 0.101 µM.

Take `COc1cccc(-c2nnc(Nc3ccc(Sc4ccnc5ccccc45)cc3)c3ccccc23)n1` [compound 327]: the EC50 amounted to 0.017 µM.

For `CCc1ccc(-c2nnc(Nc3ccc(Oc4ccnc5cc(OC)cnc45)cc3)c3ccccc23)cc1` [compound 221], the EC50 was found to be 0.015 µM.

For `c1ccc(-c2nnc(Nc3ccc(Oc4ccnc5cc(N6CCOCC6)ccc45)cc3)c3ccccc23)cc1` [Example 42, N-(4-(7-Morpholinoquinolin-4-yloxy)phenyl)-4-phenylphthalazin-1-amine], the EC50 was found to be 0.007 µM.

For the compound `COc1cnc2c(Oc3ccc(Nc4nnc(-c5cccc(C)c5)c5ccccc45)cc3)ccnc2c1` [compound 317], the EC50 came to 0.033 µM.

On to `COc1cc2nccc(Sc3ccc(Nc4nnc(-c5ccc(Cl)cc5)c5ccccc45)cc3)c2[nH]c1=O` [Example 406, 8-(4-(4-(4-Chlorophenyl)phthalazin-1-ylamino)phenylthio)-3-methoxy-1,5-naphthyridin-2(1H)-one], for which the EC50 is < 0.0023 µM.

Turning to `COc1cnc2c(Oc3ccc(Nc4nnc(-c5ccc(C)cc5)c5ccccc45)cc3F)ccnc2c1` [compound 187], the EC50 worked out at 0.006 µM.

For the compound `COc1cnc2c(Oc3ccc(Nc4nnc(-c5ccc(F)nc5)c5ccccc45)cc3)ccnc2c1` [compound 190, 4-(6-fluoro-3-pyridinyl)-N-(4-((7-(methyloxy)-1,5-naphthyridin-4-yl)oxy)phenyl)-1-phthalazinamine], the EC50 was determined as 0.129 µM.
